Entries after “also recorded” stand apart in the source; their conditions may differ. Like-named read-outs stand apart in the source and are kept apart here.
Legend:
[1] = system: A549 cells; conditions: human, 24 h
[2] = in vitro; conditions: human
[3] = system: Hepatitis C virus; assay type: cell-based; conditions: 10 μM A3 or less
[4] = system: influenza A/WSN/33 virus; assay: Plaque-reduction assays with influenza A/WSN/33 virus in cell lines of different species, with or without pyrimidine supplements
[5] = system: Sindbis virus; assay: Sindbis virus replication in A549 cells; assay type: cell-based; conditions: 10 μM A3 or less
[6] = system: HIV-1 (NL4-3); assay: microbe, parasite or virus in culture; assay type: cell-based
[7] = system: Vesicular Stomatitis virus; assay type: cell-based; conditions: A549
[8] = system: cellular 5S rRNA; conditions: concentration of 2 μM
[9] = system: influenza virus polymerase (PB1, PB2, PA, NP); assay type: cell-based, influenza A/WSN/33 virus; conditions: for inhibition of viral RNA polymerase activity: mini-genome reporter construct
[10] = system: influenza A/PR/8/34 virus v-, c-, and mRNA (NA segment); conditions: concentration of 2 μM
[11] = system: Sendai Virus 52; assay: Sendai virus replication in A549 cells; assay type: cell-based; conditions: A3 10 μM, 24 h
[12] = system: cellular gene expression (Renilla luciferase)
[13] = in vitro; conditions: human; remark: listed apart in the source
[14] = system: influenza virus; assay type: cell-based; conditions: primary screen
[15] = molecular target: Human dihydroorotate dehydrogenase (DHODH) (Homo sapiens, UniProt Q02127); assay: In vitro colorimetric DHODH assay (DCIP reduction); conditions: final concentration of 10 μM; 60 mins
Chain of Human dihydroorotate dehydrogenase (DHODH) (Q02127 whole entry): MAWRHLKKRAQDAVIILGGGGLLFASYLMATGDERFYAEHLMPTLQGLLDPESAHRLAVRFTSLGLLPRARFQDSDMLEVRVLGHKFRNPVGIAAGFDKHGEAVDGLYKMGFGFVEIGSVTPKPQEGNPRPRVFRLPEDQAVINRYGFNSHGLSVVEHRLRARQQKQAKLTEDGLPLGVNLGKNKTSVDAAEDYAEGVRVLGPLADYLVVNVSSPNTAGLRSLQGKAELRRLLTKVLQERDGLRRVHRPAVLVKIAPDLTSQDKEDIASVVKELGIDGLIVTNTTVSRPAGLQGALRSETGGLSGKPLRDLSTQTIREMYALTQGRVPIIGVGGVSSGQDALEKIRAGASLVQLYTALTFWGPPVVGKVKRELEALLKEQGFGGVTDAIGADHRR

[16] = Cell viability (cytotoxicity) in A549 cells; conditions: human, A549 cells
[17] = in vitro; conditions: mouse
[18] = system: influenza viral proteins (NP, M1, and M2); assay type: cell-based, influenza A/WSN/33 virus; conditions: A549; A/WSN/33; in the presence of A3
[19] = system: human adenovirus 5 (hAd5); assay type: cell-based; conditions: 10 μM A3 or less
[20] = system: Vaccinia Virus (NYVAC); assay type: cell-based; conditions: 10 μM A3 or less
[21] = system: influenza virus; assay: Viral entry assay, influenza virus; assay type: cell-based; conditions: viral entry assays
[22] = system: Newcastle Disease virus; assay type: cell-based; conditions: concentration of 11.2 μM; NDV/B1; A549
[23] = system: A549 cells; assay: Cell viability (cytotoxicity) in A549 cells; conditions: A549
[24] = system: retrovirus MLV; assay: Viral entry assay, retrovirus MLV; assay type: cell-based; conditions: viral entry assays
[25] = system: VSV; assay type: cell-based, Vesicular Stomatitis virus; conditions: viral entry assays
[26] = read-out: CC50 (A549), 24 hour period, Table 3

## COc1ccc(-c2nnc(SCC(=O)N3CCCC3)o2)cc1 [Compound A3-8, 2-(5-(4-methoxyphenyl)-1,3,4-oxadiazol-2-ylthio)-1-(pyrrolidin-1-yl)ethanone]
[1]
  CC10 (A549): 11.8 µM

## CN(C)c1nc(-c2ccc(Br)cc2)cs1 [Compound A35-5]
[2]
  CC50 at 24 h: 242 µM
[1]
  CC10 (A549): 17.8 µM

## Cc1[nH]c2ccc(-c3nnc(SCC(=O)N4CCOCC4)o3)cc2c1C [Compound A3-5, 2-(5-(2,3-dimethyl-1H-indol-5-yl)-1,3,4-oxadiazol-2-ylthio)-1-morpholinoethanone]
[1]
  CC10 (A549): 10.2 µM

## O=C(CSc1nnc(-c2cc3ccccc3[nH]2)o1)N1CCCC1 [Compound A3-7, 2-(5-(1H-indol-2-yl)-1,3,4-oxadiazol-2-ylthio)-1-(pyrrolidin-1-yl)ethanone]
[1]
  CC10 (A549): 15.2 µM

## CCN(CC)S(=O)(=O)c1ccc(-c2nnc(SCC(=O)N3CCCC3)o2)cc1 [Compound A3-1, N,N-diethyl-4-(5-(2-oxo-2-(pyrrolidin-1-yl)ethylthio)-1,3,4-oxadiazol-2-yl)benzenesulfonamide]
[1]
  CC10 (A549): 17.3 µM

## Cc1[nH]c2ccc(-c3nnc(SCC(=O)N4CCCC4)o3)cc2c1C [Compound A3]
[3]
  inhibition of hepatitis C virus: 2 logs
[4]
  inhibition of viral replication: strong inhibition; also recorded: complete inhibition
[4]; baby hamster kidney (BHK) cells and pig kidney (PK-15) cells, A3 10 μM
  inhibition of viral replication: partially inhibited
[4]; both A549 and MDCK cells
  effect of orotic acid on the inhibition by A3: reverse the inhibition
[4]; chicken fibroblast (DF-1) cells, A3 10 μM
  effect on viral replication: no effect
[5]
  inhibition of Sindbis virus: 2 logs
[6]; 10 μM A3 or less
  sensitivity of HIV-1: sensitive
[6]; Human immunodeficiency virus 1, NL43, TZM-bl, 48 h, read-out: IC50 against HIV-1 (NL4-3)
  IC50: 0.205 µM
[6]; time-of-addition, TZM-bl, HIV-1 MOI=0.1, A3 at 1 μM
  time of addition at which compound remains active: ≤ 12 h after infection
[7]; 10 μM A3 or less
  titer of vesicular stomatitis virus decreased: 5 logs
[8]
  levels of cellular 5S rRNA: without decreasing levels
[1]
  CC10 (A549): 38 µM
[9]; compared with the DMSO control, A3 at its CC10
  inhibition of influenza virus polymerase function: 98%
[9]; at 10 μM
  inhibition of viral RNA polymerase activity: up to 99%
[9]; same degree of inhibition by 2 μM A3 as with 100 μM ribavirin
  potency relative to ribavirin: 50 times
[10]
  production of all three viral RNA species (v-, c-, and mRNA): fully inhibit
[11]
  inhibition of Sendai virus (SV52): 3 logs
[12]; A3 at its CC10
  cellular gene expression as monitored by Renilla luciferase activity: without affecting cellular gene expression
[12]; all A3 concentrations (0.4-30 μM)
  overall host cell replication machinery (renilla luciferase control plasmid expression): not affected
[13]
  CC50: > 100 µM
[14]
  luminescence signal of influenza virus inducible firefly luciferase reporter: no luminescence detectable
[15]
  DHODH activity in vitro: Inhibits DHODH Activity
[16]
  CC50 at 24 h: 268 µM
[17]
  CC50: > 100 µM
[18]
  levels of viral proteins: reduced levels of viral proteins
[19]
  sensitivity of adenovirus: sensitive
[20]
  sensitivity of vaccinia virus: sensitive
[21]
  viral entry of influenza virus: did not inhibit viral entry

## CN(c1nc(-c2ccc(Br)cc2)cs1)C1CCS(=O)(=O)C1 (stereo not shown) [Compound A35]
[7]; concentration of 11.2 μM
  inhibition of VSV: less significant inhibition
[2]
  CC50 at 24 h: 110 µM
[1]
  CC10 (A549): 11.2 µM
[22]
  inhibition of NDV: less significant inhibition
[21]
  viral entry of influenza virus: did not affect the entry step

## Cc1[nH]c2ccc(-c3nnc(SCC(=O)N(C(C)C)C(C)C)o3)cc2c1C [Compound A3-4, 2-(5-(2,3-dimethyl-1H-indol-5-yl)-1,3,4-oxadiazol-2-ylthio)-N,N-diisopropylacetamide]
[1]
  CC10 (A549): 10.7 µM

## Cc1[nH]c2ccc(-c3nnc(SCC(=O)N4CCc5ccccc54)o3)cc2c1C [Compound A3-3, 2-(5-(2,3-dimethyl-1H-indol-5-yl)-1,3,4-oxadiazol-2-ylthio)-1-(indolin-1-yl)ethanone]
[1]
  CC10 (A549): 8.5 µM
[23]; [26]
  CC50: 65 µM

## Cc1[nH]c2ccc(-c3nnc(SCC(=O)N4CCCCCC4)o3)cc2c1C [Compound A3-6, 1-(azepan-1-yl)-2-(5-(2,3-dimethyl-1H-indol-5-yl)-1,3,4-oxadiazol-2-ylthio)ethanone]
[1]
  CC10 (A549): 18.2 µM

## NC(=O)c1ncn([C@@H]2O[C@H](CO)[C@@H](O)[C@H]2O)n1 [ribavirin, reference compound]
[9]; at 100 μM
  inhibition of viral RNA polymerase activity: 90%

## CN(c1nc(-c2ccccc2)cs1)C1CCS(=O)(=O)C1 (stereo not shown) [Compound A35-2]
[1]
  CC10 (A549): 12.2 µM

## O=C(CSc1nnc(-c2cccnc2)o1)N1CCCC1 [Compound A3-11, 2-(5-(pyridin-3-yl)-1,3,4-oxadiazol-2-ylthio)-1-(pyrrolidin-1-yl)ethanone]
[1]
  CC10 (A549): 32.6 µM

## CN(Cc1ccccc1)c1nc(-c2ccc([N+](=O)[O-])cc2)cs1 [Compound A35-1]
[1]
  CC10 (A549): 10.8 µM

## O=C(CSc1nnc(-c2cc3ccccc3o2)o1)N1CCCC1 [Compound A3-9, 2-(5-(benzofuran-2-yl)-1,3,4-oxadiazol-2-ylthio)-1-(pyrrolidin-1-yl)ethanone]
[1]
  CC10 (A549): 10.9 µM

## Cc1oncc1C(=O)Nc1ccc(C(F)(F)F)cc1 [Leflunomide, reference compound]
[4]; A549 and MDCK cells, concentration of 10 μM
  effect on influenza virus replication: No inhibition

## O=C(CSc1nnc(-c2ccncc2)o1)N1CCCC1 [Compound A3-12, 2-(5-(pyridin-4-yl)-1,3,4-oxadiazol-2-ylthio)-1-(pyrrolidin-1-yl)ethanone]
[1]
  CC10 (A549): 11.5 µM

## CCN(CC)C(=O)CSc1nnc(-c2ccc3[nH]c(C)c(C)c3c2)o1 [Compound A3-2, 2-(5-(2,3-dimethyl-1H-indol-5-yl)-1,3,4-oxadiazol-2-ylthio)-N,N-diethylacetamide]
[1]
  CC10 (A549): 29 µM

## Nc1nc(-c2ccc(Cl)cc2)cs1 [Compound A35-3]
[1]
  CC10 (A549): 11.4 µM

## CN(c1ccc(O)cc1)c1nc(-c2ccc(Cl)cc2)cs1 [Compound A35-4]
[1]
  CC10 (A549): 6 µM
[23]; [26]
  CC50: 30 µM

## COc1cc2c(O)c3c(c(-c4ccc5c(c4)OCO5)c2cc1OC)C(=O)OC3 [Compound C2]
[24]
  entry of the retrovirus MLV: unaffected
[23]
  CC50: 131 µM
[25]
  entry of VSV: inhibited
[21]
  viral entry of influenza virus: inhibited

Reference: US9096585B2 (Icahn School of Medicine at Mount Sinai, priority 2010, dated 2015)
